Where two headings read alike, the source gives them in different places.
Assays:
mammal cells = settings: in cellular terms; cited from earlier work
[1] = test system: kinases of the PI3K isoenzyme family; settings: cited from earlier work
DNA-PK [2] = target: T1, DNA-PK (Homo sapiens (Human), UniProt P78527); settings: cited from earlier work
DNA-PK [3] = target: T1, DNA-PK; assay: DNA-PK/biochemical assay (FlashPlate kinase assay); settings: 5 μM ATP, 90 min, room temperature
Procedure: The kinase assay was carried out in streptavidin-coated […] microtitre FlashPlates®. To this end, 1.5 μg of the DNA-PK/protein complex and 100 ng of biotinylated substrate, such as, for example, PESQEAFADLWKK biotin-NH2 (“biotin-DNA-PK peptide”), in a total volume of 36.5 μl (34.25 mM HEPES/KOH, 7.85 mM Tris-HCl, 68.5 mM KCl, 5 μM ATP, 6.85 mM MgCl2, 0.5 mM EDTA, 0.14 mM EGTA, 0.69 mM DTT, pH 7.4), were incubated at room temperature for 90 min with 500 ng of DNA from calf thymus, 0.1 μCi of 33P-ATP and 1.8% of DMSO per well with or without the test compound. The reaction was stopped using 50 μl/well of 200 mM EDTA. After incubation for a further 30 min at room temperature, the liquid was removed. Each well was washed three times with 100 μl of 0.9% sodium chloride solution. A non-specific reaction (blank value) was determined using 10 μM of a proprietary kinase inhibitor. The radioactivity measurement was carried out by means of a TopCount. IC50 values were calculated in RS1 (Kashishian et al. (2003) Molecular Cancer Therapeutics 1257).

| Structure (SMILES) | IC50 (DNA-PK [3]) [nM] | other results |
| --- | --- | --- |
| O=c1cc(N2CCOCC2)oc2c(-c3ccccc3)cccc12 [LY294002] |  | increase in sensitivity to ionising irradiation (mammal cells): only a weak increase |
| CCN1CCN(CC(=O)Nc2ccc(-c3cccc4c(=O)cc(N5CCOCC5)oc34)c3sc4ccccc4c23)CC1 [KU-0060648] |  | inhibition of PI3K isoenzyme family kinases [1]: potently inhibited |
| O=c1cc(N2CCOCC2)oc2c(-c3cccc4c3sc3ccccc34)cccc12 [NU-7441] |  | IC50 (DNA-PK [2]): 20 nM |
| COc1cc2ncc3c(c2cc1OC(CN)c1ccc(F)cc1)n(-c1ccc(C#N)cc1F)c(=O)n3C (stereo not drawn) [Compound 32, 4-{8-[2-Amino-1-(4-fluorophenyl)ethoxy]-7-methoxy-3-methyl-2-oxo-2,3-dihydro-imidazo[4,5-c]quinolin-1-yl}-3-fluorobenzonitrile] | 500 to 1000 |  |
| COc1cc2ncc3c(c2cc1OCc1ccc(F)cc1Cl)n(-c1ccc(C#N)cc1F)c(=O)n3C [Compound 23, 4-[8-(2-Chloro-4-fluorobenzyloxy)-7-methoxy-3-methyl-2-oxo-2,3-dihydro-imidazo[4,5-c]quinolin-1-yl]-3-fluorobenzonitrile] | < 100 |  |
| COc1cc2ncc3c(c2cc1OCc1ccc(F)cc1)n(-c1c(F)cc(C#N)cc1F)c(=O)n3C [Compound 27, 3,5-Difluoro-4-[8-(4-fluoro-benzyloxy)-7-methoxy-3-methyl-2-oxo-2,3-dihydroimidazo-[4,5-c]quinolin-1-yl]benzonitrile] | < 100 |  |
| COc1cc2ncc3c(c2cc1OCc1ccc(F)cc1)n(-c1ccc(C#N)cc1F)c(=O)n3C [Compound 17, 3-Fluoro-4-[8-(4-fluoro-benzyloxy)-7-methoxy-3-methyl-2-oxo-2,3-dihydro-imidazo[4,5-c]quinolin-1-yl]-benzonitrile] | < 100 |  |
| COc1cc2ncc3c(c2cc1OC)n(-c1ccc(C#N)cc1)c(=O)n3C [Compound 2, 4-(7,8-Dimethoxy-3-methyl-2-oxo-2,3-dihydroimidazo-[4,5-c]quinolin-1-yl)-benzonitrile] | < 100 |  |
| COc1cc2ncc3c(c2cc1OCc1ccc(F)c(Cl)c1)n(-c1ccc(C#N)cc1F)c(=O)n3C [Compound 24, 4-[8-(3-Chloro-4-fluorobenzyloxy)-7-methoxy-3-methyl-2-oxo-2,3-dihydro-imidazo[4,5-c]quinolin-1-yl]-3-fluorobenzonitrile] | < 100 |  |
| COc1cc2ncc3[nH]c(=O)n(-c4ccc(C#N)cc4)c3c2cc1OCc1ccccc1 [Compound 6, 4-(8-Benzyloxy-7-methoxy-2-oxo-2,3-dihydroimidazo-[4,5-c]quinolin-1-yl)-benzonitrile] | < 100 |  |
| COc1cc2ncc3c(c2cc1/C=C/c1ccsc1)n(-c1ccc(C#N)cc1F)c(=O)n3C [Compound 41, 3-Fluoro-4-[7-methoxy-3-methyl-2-oxo-8-((E)-2-thiophen-3-yl-viniyl)-2,3-dihydroimidazo-[4,5-c]quinolin-1-yl]benzonitrile] | < 100 |  |
| COc1cc2ncc3c(c2cc1O)n(-c1ccc(C#N)cc1)c(=O)n3C [Compound 3, 4-(8-Hydroxy-7-methoxy-3-methyl-2-oxo-2,3-dihydro-imidazo[4,5-c]quinolin-1-yl)-benzonitrile] | < 100 |  |

Further lines, with some results ahead:

| IC50 (DNA-PK [3]) [nM] | Structure (SMILES) | other results |
| --- | --- | --- |
| < 100 | COc1cc2ncc3c(c2cc1OCc1ccccc1)n(-c1ccc(C#N)cc1)c(=O)n3C [Compound 7, 4-(8-Benzyloxy-7-methoxy-3-methyl-2-oxo-2,3-dihydro-imidazo[4,5-c]quinolin-1-yl)-benzonitrile] |  |
| < 100 | COc1cc2ncc3c(c2cc1-c1ccn[nH]1)n(-c1ccc(C#N)cc1F)c(=O)n3C [Compound 39, 3-Fluoro-4-[7-methoxy-3-methyl-2-oxo-8-(2H-pyrazol-3-yl)-2,3-dihydroimidazo[4,5-c]quinolin-1-yl]benzonitrile] |  |
| < 100 | COc1cc2ncc3c(c2cc1OC(C(N)=O)c1ccc(F)cc1)n(-c1c(F)cc(C#N)cc1F)c(=O)n3C (stereo not drawn) [Compound 25, 2-[1-(4-Cyano-2,6-difluoro-phenyl)-7-methoxy-3-methyl-2-oxo-2,3-dihydro-1H-imidazo-[4,5-c]quinolin-8-yloxy]-2-(4-fluorophenyl)acetamide] |  |
| < 100 | COc1cc2ncc3c(c2cc1OCc1ccsc1)n(-c1ccc(C#N)cc1F)c(=O)n3C [Compound 13, 3-Fluoro-4-(7-methoxy-3-methyl-2-oxo-8-(thiophen-3-ylmethoxy)-2,3-dihydroimidazo[4,5-c]-quinolin-1-yl)benzonitrile] |  |
| < 100 | COc1cc2ncc3c(c2cc1OCc1ccncc1)n(-c1ccc(C#N)cc1F)c(=O)n3C [Compound 20, 3-Fluoro-4-[7-methoxy-3-methyl-2-oxo-8-(pyridin-4-ylmethoxy)-2,3-dihydroimidazo[4,5-c]-quinolin-1-yl]benzonitrile] |  |
| < 100 | COc1cc2ncc3c(c2cc1-c1cccnc1)n(-c1ccc(C#N)cc1F)c(=O)n3C [Compound 33, 3-Fluoro-4-(7-methoxy-3-methyl-2-oxo-8-pyridin-3-yl-2,3-dihydro-imidazo[4,5-c]quinolin-1-yl)-benzonitrile] |  |
| < 100 | COc1cc2ncc3c(c2cc1OCc1cccs1)n(-c1c(F)cc(C#N)cc1F)c(=O)n3C [Compound 28, 3,5-Difluoro-4-(7-methoxy-3-methyl-2-oxo-8-(thiophen-2-ylmethoxy)-2,3-dihydroimidazo-[4,5-c]quinolin-1-yl)benzonitrile] |  |
| < 100 | COc1cc2ncc3c(c2cc1OCc1cccs1)n(-c1ccc(C#N)cc1F)c(=O)n3C [Compound 14, 3-Fluoro-4-(7-methoxy-3-methyl-2-oxo-8-(thiophen-2-ylmethoxy)-2,3-dihydroimidazo[4,5-c]-quinolin-1-yl)benzonitrile] |  |
| < 100 | COc1cc2ncc3[nH]c(=O)n(-c4c(F)cc(C#N)cc4F)c3c2cc1OCc1ccccc1 [Compound 10, 4-(8-Benzyloxy-7-methoxy-2-oxo-2,3-dihydroimidazo-[4,5-c]quinolin-1-yl)-3,5-difluorobenzonitrile] |  |

Reference: patent publication US9000153B2, “Imidazo[4,5-c]quinolines as DNA-PK inhibitors” (Merck Patent GmbH, priority 2010, dated 2015)
